target: T1, AHR (Homo sapiens, UniProt P35869); test: In vitro assay 2: agonism in human cell line (transactivation assay); conditions: Assay 2: AHR-luc Hum Agonism IC50 [M], no kynurenic acid, 20 hours, firefly luciferase
T1 sequence (P35869 11-848): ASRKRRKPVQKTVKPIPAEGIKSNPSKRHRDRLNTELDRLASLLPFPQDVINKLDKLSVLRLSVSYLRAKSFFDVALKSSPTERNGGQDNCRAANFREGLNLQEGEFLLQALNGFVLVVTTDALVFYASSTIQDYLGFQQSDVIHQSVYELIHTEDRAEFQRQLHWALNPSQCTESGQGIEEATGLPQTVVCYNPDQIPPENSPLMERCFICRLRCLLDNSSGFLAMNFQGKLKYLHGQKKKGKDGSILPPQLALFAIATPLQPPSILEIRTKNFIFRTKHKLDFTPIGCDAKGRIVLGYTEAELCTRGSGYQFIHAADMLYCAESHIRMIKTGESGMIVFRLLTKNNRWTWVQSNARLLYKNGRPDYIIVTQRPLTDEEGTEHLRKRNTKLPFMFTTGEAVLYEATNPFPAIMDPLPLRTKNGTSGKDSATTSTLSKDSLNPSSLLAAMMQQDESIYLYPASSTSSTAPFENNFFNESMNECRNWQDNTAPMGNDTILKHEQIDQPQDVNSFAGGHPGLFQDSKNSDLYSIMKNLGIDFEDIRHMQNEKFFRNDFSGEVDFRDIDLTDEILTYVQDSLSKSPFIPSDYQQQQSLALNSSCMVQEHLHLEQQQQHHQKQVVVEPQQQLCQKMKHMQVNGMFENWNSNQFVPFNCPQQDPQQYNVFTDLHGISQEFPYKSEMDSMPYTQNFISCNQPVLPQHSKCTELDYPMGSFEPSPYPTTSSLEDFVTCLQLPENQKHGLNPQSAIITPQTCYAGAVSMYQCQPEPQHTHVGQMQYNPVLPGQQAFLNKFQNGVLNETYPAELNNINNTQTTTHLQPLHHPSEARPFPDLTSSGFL

| Compound | IC50 [M] |
| --- | --- |
| CC(NC(=O)c1cc(-c2ccc(Cl)cc2)nn(-c2cccc(F)c2)c1=O)C(O)C(F)(F)F (mixture of isomers) [Example 217, Isomeric mixture no. 1 of 6-(4-chlorophenyl)-2-(3-fluorophenyl)-3-oxo-N-(4,4,4-trifluoro-3-hydroxybutan-2-yl)-2,3-dihydropyridazine-4-carboxamide] | > 2e-05 |
| O=C(NC(CO)C(F)(F)F)c1cc(-c2ccc(C(F)(F)F)cc2)nn(-c2cccc(F)c2)c1=O (racemic) [Example 266, 2-(3-Fluorophenyl)-3-oxo-N-[(2RS)-1,1,1-trifluoro-3-hydroxypropan-2-yl]-6-[4-(trifluoromethyl)phenyl]-2,3-dihydropyridazine-4-carboxamide] | 7.84e-07 |

Now from value to compound:

| IC50 [M] | Compound |
| --- | --- |
| > 2e-05 | CC(O)C(NC(=O)c1cc(-c2ccc(C(F)(F)F)cc2)nn(-c2cccc(F)c2)c1=O)C(F)(F)F (racemic) [Example 260, 2-(3-Fluorophenyl)-3-oxo-N-[(2RS,3RS)-1,1,1-trifluoro-3-hydroxybutan-2-yl]-6-[4-(trifluoromethyl)phenyl]-2,3-dihydropyridazine-4-carboxamide or 2-(3-fluorophenyl)-3-oxo-N-[(2SR,3RS)-1,1,1-trifluoro-3-hydroxybutan-2-yl]-6-[4-(trifluoromethyl)phenyl]-2,3-dihydropyridazine-4-carboxamide] |
| > 2e-05 | O=C(N[C@@H]1CCC[C@@H]1O)c1cc(-c2ccc(Cl)cc2)nn(-c2cccc(F)c2)c1=O [Example 133, 6-(4-Chlorophenyl)-2-(3-fluorophenyl)-N-[(1R,2S)-2-hydroxycyclopentyl]-3-oxo-2,3-dihydropyridazine-4-carboxamide] |
| > 2e-05 | CC(C)[C@@H](CO)NC(=O)c1cc(-c2ccc(C(F)(F)F)cc2)nn(-c2cccc(F)c2)c1=O [Example 239, 2-(3-Fluorophenyl)-N-[(2S)-1-hydroxy-3-methylbutan-2-yl]-3-oxo-6-[4-(trifluoromethyl)phenyl]-2,3-dihydropyridazine-4-carboxamide] |
| 6.56e-08 | CC(C)[C@H](CO)NC(=O)c1cc(-c2ccc(C(F)(F)F)cc2)nn(-c2cccc(F)c2)c1=O [Example 240, 2-(3-Fluorophenyl)-N-[(2R)-1-hydroxy-3-methylbutan-2-yl]-3-oxo-6-[4-(trifluoromethyl)phenyl]-2,3-dihydropyridazine-4-carboxamide] |

same assay, conditions: read-out: Assay 2: AHR-luc Hum Agonism IC50, no kynurenic acid, 20 hours, firefly luciferase

| Compound | IC50 [M] |
| --- | --- |
| 2-(3-Fluorophenyl)-N-{(2-hydroxy-1-[tetrahydrofuran-3-yl]ethyl}-6-(4-methoxyphenyl)-3-oxo-2,3-dihydropyridazine-4-carboxamide [Example 158] | > 2e-05 |
| CC(C)(O)C(NC(=O)c1cc(-c2ccc(C(F)(F)F)cc2)nn(-c2cccc(F)c2)c1=O)C(F)(F)F (single isomer, unassigned; (+)) [Example 395, (+)-2-(3-fluorophenyl)-3-oxo-N-(1,1,1-trifluoro-3-hydroxy-3-methylbutan-2-yl)-6-[4-(trifluoromethyl)phenyl]-2,3-dihydropyridazine-4-carboxamide] | > 2e-05 |

target: T1, AHR; test: In vitro assay 1: antagonism in human cell line (transactivation assay, kynurenic acid prestimulated); conditions: Assay 1: AHR-luc Hum Antagonism IC50 [M], 150 μM kynurenic acid, 20 hours, firefly luciferase

| Compound | IC50 [M] |
| --- | --- |
| CC(C)[C@@H](CO)NC(=O)c1cc(-c2ccc(Cl)cc2)nn(-c2cccc(Cl)c2)c1=O [Example 59, 2-(3-Chlorophenyl)-6-(4-chlorophenyl)-N-[(2S)-1-hydroxy-3-methylbutan-2-yl]-3-oxo-2,3-dihydropyridazine-4-carboxamide] | 4.96e-08 |
| CC[C@@H](CO)NC(=O)c1cc(-c2ccc(Cl)cc2)nn(-c2cccc(Cl)c2)c1=O [Example 60, 2-(3-Chlorophenyl)-6-(4-chlorophenyl)-N-[(2S)-1-hydroxybutan-2-yl]-3-oxo-2,3-dihydropyridazine-4-carboxamide] | 6.6e-08 |
| CC(C)C[C@@H](CO)NC(=O)c1cc(-c2ccc(Cl)cc2)nn(-c2cccc(Cl)c2)c1=O [Example 61, 2-(3-Chlorophenyl)-6-(4-chlorophenyl)-N-[(2S)-1-hydroxy-4-methylpentan-2-yl]-3-oxo-2,3-dihydropyridazine-4-carboxamide] | 5.14e-07 |
| O=C(NCC(O)C(F)(F)F)c1cc(-c2ccc(Cl)cc2)nn(-c2cccc(Cl)c2)c1=O (stereo not drawn) [Example 62, 2-(3-Chlorophenyl)-6-(4-chlorophenyl)-3-oxo-N-(3,3,3-trifluoro-2-hydroxypropyl)-2,3-dihydropyridazine-4-carboxamide] | 1.5e-07 |
| CC(CO)NC(=O)c1cc(-c2ccc(Cl)cc2)nn(-c2cccc(Cl)c2)c1=O (stereo not drawn) [Example 65, 2-(3-Chlorophenyl)-6-(4-chlorophenyl)-N-(1-hydroxypropan-2-yl)-3-oxo-2,3-dihydropyridazine-4-carboxamide] | 3e-07 |
| CC(C)C(O)CNC(=O)c1cc(-c2ccc(Cl)cc2)nn(-c2cccc(Cl)c2)c1=O (stereo not drawn) [Example 67, 2-(3-Chlorophenyl)-6-(4-chlorophenyl)-N-(2-hydroxy-3-methylbutyl)-3-oxo-2,3-dihydropyridazine-4-carboxamide] | 3.89e-07 |
| Cc1ccc(-c2cc(C(=O)N[C@H](CO)C(C)C)c(=O)n(-c3ccccc3)n2)cc1 [Example 71, N-[(2S)-1-hydroxy-3-methylbutan-2-yl]-6-(4-methylphenyl)-3-oxo-2-phenyl-2,3-dihydropyridazine-4-carboxamide] | 4.05e-08 |
| Cc1ccc(-c2cc(C(=O)NC(C)CO)c(=O)n(-c3ccccc3)n2)cc1 (stereo not drawn) [Example 73, N-(1-hydroxypropan-2-yl)-6-(4-methylphenyl)-3-oxo-2-phenyl-2,3-dihydropyridazine-4-carboxamide] | 3.07e-07 |
| Cc1ccc(-c2cc(C(=O)NC(CO)C(C)C)c(=O)n(-c3cccc(F)c3)n2)cc1C (stereo not drawn) [Example 82, 6-(3,4-dimethylphenyl)-2-(3-fluorophenyl)-N-(1-hydroxy-3-methylbutan-2-yl)-3-oxo-2,3-dihydropyridazine-4-carboxamide] | 1.03e-07 |
| Cc1ccc(-c2cc(C(=O)N[C@@H](CO)C(C)C)c(=O)n(-c3cccc(F)c3)n2)cc1C [Example 84, 6-(3,4-dimethylphenyl)-2-(3-fluorophenyl)-N-[(2R)-1-hydroxy-3-methylbutan-2-yl]-3oxo-2,3-dihydropyridazine-4-carboxamide] | 3.66e-06 |
| CC[C@H](CO)NC(=O)c1cc(-c2ccc(C)c(C)c2)nn(-c2cccc(F)c2)c1=O [Example 87, 6-(3,4-dimethylphenyl)-2-(3-fluorophenyl)-N-[(2R)-1-hydroxybutan-2-yl]-3-oxo-2,3-dihydropyridazine-4-carboxamide] | 7.26e-07 |
| Cc1ccc(-c2cc(C(=O)N[C@H](C)CO)c(=O)n(-c3cccc(F)c3)n2)cc1C [Example 90, 6-(3,4-dimethylphenyl)-2-(3-fluorophenyl)-N-[(2R)-1-hydroxypropan-2-yl]-3-oxo-2,3-dihydropyridazine-4-carboxamide] | 6.75e-07 |

The remaining lines, values ahead:

| IC50 [M] | Compound |
| --- | --- |
| 2.11e-06 | Cc1ccc(-c2cc(C(=O)N[C@@H](CO)C(C)C)c(=O)n(-c3ccccc3)n2)cc1 [Example 72, N-[(2R)-1-hydroxy-3-methylbutan-2-yl]-6-(4-methylphenyl)-3-oxo-2-phenyl-2,3-dihydropyridazine-4-carboxamide] |
| 2.1e-06 | Cc1ccc(-c2cc(C(=O)NCCO)c(=O)n(-c3ccccc3)n2)cc1 [Example 74, N-(2-hydroxyethyl)-6-(4-methylphenyl)-3-oxo-2-phenyl-2,3-dihydropyridazine-4-carboxamide] |
| 2.82e-07 | CC(CO)NC(=O)c1cc(-c2ccc(Cl)cc2)nn(-c2ccccc2)c1=O (stereo not drawn) [Example 79, 6-(4-chlorophenyl)-N-(1-hydroxypropan-2-yl)-3-oxo-2-phenyl-2,3-dihydropyridazine-4-carboxamide] |
| 1.12e-06 | C[C@H](CO)NC(=O)c1cc(-c2ccc(Cl)cc2)nn(-c2ccccc2)c1=O [Example 81, 6-(4-chlorophenyl)-N-[(2R)-1-hydroxypropan-2-yl]-3-oxo-2-phenyl-2,3-dihydropyridazine-4-carboxamide] |
| 8.61e-08 | CCC(CO)NC(=O)c1cc(-c2ccc(C)c(C)c2)nn(-c2cccc(F)c2)c1=O (stereo not drawn) [Example 85, 6-(3,4-dimethylphenyl)-2-(3-fluorophenyl)-N-(1-hydroxybutan-2-yl)-3-oxo-2,3-dihydropyridazine-4-carboxamide] |
| 1.46e-07 | Cc1ccc(-c2cc(C(=O)NC(C)CO)c(=O)n(-c3cccc(F)c3)n2)cc1C (stereo not drawn) [Example 88, 6-(3,4-dimethylphenyl)-2-(3-fluorophenyl)-N-(1-hydroxypropan-2-yl)-3-oxo-2,3-dihydropyridazine-4-carboxamide] |

same assay, conditions: read-out: Assay 1: AHR-luc Hum Antagonism IC50, 150 μM kynurenic acid, 20 hours, firefly luciferase

| Compound | IC50 [M] |
| --- | --- |
| 2-(3-Fluorophenyl)-N-{(2-hydroxy-1-[tetrahydrofuran-3-yl]ethyl}-6-(4-methoxyphenyl)-3-oxo-2,3-dihydropyridazine-4-carboxamide [Example 158] | 2.75e-07 |

From patent US11040035B2, “3-oxo-2,6-diphenyl-2,3-dihydropyridazine-4-carboxamides” (BAYER PHARMA AKTIENGESELLSCHAFT, priority 2016, dated 2021)
